Legend:
[1] = system: tumor necrosis factor-alpha; conditions: cited from earlier work
equine bone marrow MSC [2] = assay: Equine bone marrow CFU-F assay after IV dexamethasone (Example 21); type: in vivo, horse; conditions: Day 14 after plating; 3.18 mg/kg (HED 6 mg/kg) IV; placebo about 46.6
germinal center = assay: Germinal center intensity by FITC-PNA in spleen (Example 18); type: in vivo, mouse; conditions: about 48 hours, controls approximately 40
Method: The mice were sacrificed by exsanguination and then residual blood cells flushed out with 5 U heparin/ml PBS via retrograde flush into the thoracic jugular vein. The spleens were removed, weighed wet, and then fixed in 10% formalin. Subsequently the spleens were sectioned via proprietary methods and then incubated with FITC-PNA at 4 deg.C for 24 hours, washed, placed on slides and immunofluorescent images were captured. Metamorph software was used to quantify the immunofluorescent signal. Average germinal center intensity measured by FITC-PNA average intensity was approximately 40 in controls, reduced to about 33 at the 6 mg/kg HED, reduced to about 22.5 at the 9 mg/kg HED, and further reduced to about 15 at the 11 mg/kg HED.

spleen [3] = assay: In vivo sequestration of injected CTG-labeled MNC in the spleen, flow cytometry (Example 9); parameters: species or system mouse; conditions: cells injected day 7, one hour
[4] = system: osteoarthritis (OA), tendon injury, or osteochondral defect; assay: Equine outcome after stem cell (MSC) injection with dexamethasone pretreatment (Example 16); type: in vivo; conditions: 5.7 mg/kg HED, one horse
Method: Approximately 48 hours later male or female horses with osteoarthritis (OA), tendon injury, or osteochondral defect were intra-articularly (IA) or intra-tendon injected with either allogeneic adipose-derived mesenchymal stem cells (MSCs) or with autologous, bone marrow derived culture expanded MSCs.

[5] = system: active germinal centers in the spleen; assay: Dexamethasone pretreatment: ex vivo stem cell binding to splenic sections, spleen weight, MNC and germinal centers (Example 8)
blood lymphocytes = assay: Blood lymphocytes (CBC) after oral dexamethasone (Example 20); type: in vivo, mouse; conditions: placebo about 1700
equine bone marrow MSC [6] = assay: Osteocyte, chondrocyte and adipocyte differentiation of MSC from treated horses (Example 21); type: in vivo, horse; conditions: for osteocyte differentiation: not different
Method: 1 g of Alizarin Red S (Sigma-Aldrich) was mixed with 50 ml of DI water to make a 50 ml solution of Alizarin Red S 2%. The pH of the Alizarin Red S solution was adjusted to 4.1-4.3 using ammonium hydroxide. The solution was filtered through a vacuum filtration system, then transferred to a 50 ml conical tube and stored protected from light.
250 mg of Oil Red O (Sigma-Aldrich) was added to 50 mL of isopropanol to make a 50 ml solution of Oil Red O 0.5%. The solution was mixed well, then filtered through a vacuum filtration system. After that, it was stored as a stock solution in a 50 ml conical tube wrapped in aluminum foil protected from light. On the staining day, 3 parts of stock Oil Red O 0.5% were mixed with 2 parts of DI water to make a working stock solution. This solution was incubated for 10 min and the forming precipitate removed by filtration through a sterile filter.
50 mg of Safranin O (Sigma-Aldrich) was added to 50 ml of DI water to make a 50 ml solution of Safranin O 0.1%. The solution was mixed well, then filtered through a vacuum filtration system. After that, it was stored in 50 ml conical tube protected from light.
After BM withdrawal from each vial for the Giemsa staining assay, another 100 μl of BM was withdrawn, and plated in CFU-F assay media (10 ml medium per T25 flasks; 2× total) 36 hours after it was extracted from the horse. MSCs were passaged in MesenCult™ MSC Basal Medium (Human; growth medium; including stimulatory supplement) until passage number 3 (P3). After trypsinization of the cells, they were mixed with an equivalent volume of growth medium, centrifuged (230 g for 3 min at RT) and resuspended in 1 ml of growth medium. Cells were counted and seeded using 30,000 cells/well of a 12 well plate (30,000 cells/well seeded in 3 wells; T1, T2 and one negative control). The seeded cells (P4) of T1 and T2 were left expanding in growth medium for two days, followed by a medium change into osteocyte differentiation medium (Stem Pro Osteocyte Differentiation Basal Medium and supplement; Gibco). The latter was changed every 2-3 days for all the plates. Morphological changes were documented by taking images using the EVOS XL Core microscope. Day 1 corresponds to MSCs being in differentiation medium for 24 h, Day 2 for 48 h etc. Two time points (T1: Day 4 and T2: Day 7 with one 12-well plate for both time points) were chosen for the osteocyte staining (Alizarin Red S) to assess the onset as well as the differentiation extent of MSCs from AVM0703 vs Placebo treated horses. […]
MSCs were passaged in MesenCult™ MSC Basal Medium (Human; including stimulatory supplement) until passage number 4 (P4). […] Cells were counted and seeded using a density of 80,000 cells/well of a 12 well plate (80,000 cells/well seeded in 3 wells; T1, T2 and one negative control). […]

spleen [7] = assay: Splenic sequestration and circulating numbers of injected CTG-labeled stem cells, flow cytometry (Example 14); type: in vivo, mouse; conditions: 1 mg IP days -7, -4, -1 (HED 7.4 mg/kg)
From the text: Control mice (n=4) were IP injected with the same volume per body weight of 70% ethanol diluted 1:10 in PBS. Sixty minutes later the mice were sacrificed by exsanguination and spleens and blood collected for flow cytometry. The spleens were dissociated to single cell suspensions prior to flow cytometry. CTG-labeled bone marrow mononuclear stem cells were detected in the spleen and lysed whole blood using flow cytometry.

[8] = single 1 mg, 7 days prior to harvest

Which “potency in inhibiting tumor necrosis factor-alpha relative to thalidomide” value [1] does the source give for `Nc1cccc2c1CN(C1CCC(=O)NC1=O)C2=O` (stereo not drawn) [Lenalidomide] here?
Its value is 50,000 times.

For `C[C@@H]1C[C@H]2[C@@H]3CCC4=CC(=O)C=C[C@]4(C)[C@@]3(F)[C@@H](O)C[C@]2(C)[C@@]1(O)C(=O)CO` [dexamethasone], which “MSC number (CFU-F)” value (equine bone marrow MSC [2]) is on record?
Its value is “about 78.8 CFU-F”.

And the “average germinal center intensity measured by FITC-PNA average intensity” value (“average germinal center intensity” below) (germinal center; 6 mg/kg HED IP)?
The value was “about 33”.

And the “average germinal center intensity” value (germinal center; 9 mg/kg HED IP)?
The value was “about 22.5”.

What about the “average germinal center intensity” value (germinal center; 11 mg/kg HED IP) of the same molecule?
The value was “about 15”.

What about the “reduction of MNC CTG total cell number accumulation in the spleen” value (spleen [3]; 3 mgs total (1 mg ip day 0, 2 and 5)) of the same molecule?
The value was “approximately 70%”.

And the “reduction of MNC CTG total cell number accumulation in the spleen” value (spleen [3]; total 2 mgs (1 mg ip day 0 and day 4))?
Its value is 33-43%.

What about the “return to work, tendon injury (DDFT grade 3)” value [4] of the same molecule?
The value was no more than 6 months.

What about the “reduction of mononuclear stem cell binding to spleen sections” value ([5]; day 7 after single 1 mg IP) of the same molecule?
The value was 30-40%.

And the “increase of percentage of stem cells within MNC fractions from whole blood or bone marrow compared to control (average)” value [5, 8]?
Its value is 32%.

And the “reduction of PNA labeled germinal centers” value [5, 8]?
Its value is “up to 24%”.

What about the “reduction of average circulating MNC number” value [5, 8] of the same molecule?
The value was 34%.

And the “reduction of spleen weights (average)” value [5, 8]?
Its value is 22%.

And the lymphocytes (blood lymphocytes; single acute HED 12 mg/kg oral on day -2)?
Its lymphocytes is “about 170 per microliter”.

What about the lymphocytes (blood lymphocytes; two repeat doses HED 6 mg/kg oral, day -2 and day -1) of the same molecule?
The lymphocytes was “about 1000 per microliter”.

What about the osteocyte differentiation (equine bone marrow MSC [6]; day 4 of assay, placebo 1.75) of the same molecule?
Its osteocyte differentiation is 3.19.

What about the chondrocyte culture area (equine bone marrow MSC [6]; day 6 of assay, placebo 23.4%) of the same molecule?
The chondrocyte culture area was 40.1%.

What about the osteocyte differentiation (equine bone marrow MSC [6]; day 7 of assay, placebo 4.29) of the same molecule?
The osteocyte differentiation was 4.58.

And the adipocyte numbers (equine bone marrow MSC [6]; day 24 of assay, placebo 4.8, no difference)?
The adipocyte numbers was 7.4 adipocytes.

What about the “circulating numbers of CTG-stem cells” value (spleen [7]; controls 4,500) of the same molecule?
Its value is 49,000 CTG-stem cells.

And the “splenic sequestration 60 minutes after injection” value (spleen [7]; controls 665,000)?
The value was 285,000 CTG-stem cells.
